Source: patent US20130217652A1, “SULFINYLBENZYL AND THIOBENZYL DERIVATIVES AS SPHINGOSINE 1-PHOSPHATE (S1P) RECEPTOR MODULATORS” (ALLERGAN, INC., priority 2012, published 2013)

What follows are compounds tested against T1, human S1P1 receptor (Homo sapiens, UniProt P21453) (assay: GTP γ35S binding assay for S1P1 activity). Conditions: membranes of cells stably expressing the S1P1 receptor, test compounds 0.08 to 5,000 nM, 30 min at 25° C.
T1 construct: expressed in transfected cells; membranes used
Format: biochemical
Method: Compounds were synthesized and tested for S1P1 activity using the GTP γ^35S binding assay. These compounds may be assessed for their ability to activate or block activation of the human S1P1 receptor in cells stably expressing the S1P1 receptor.
GTP γ^35S binding was measured in the medium containing (mM) HEPES 25, pH 7.4, MgCl2 10, NaCl 100, dithitothreitol 0.5, digitonin 0.003%, 0.2 nM GTP γ^35S, and 5 μg membrane protein in a volume of 150 μl. Test compounds were included in the concentration range from 0.08 to 5,000 nM unless indicated otherwise. Membranes were incubated with 100 μM 5′-adenylylimmidodiphosphate for 30 min, and subsequently with 10 μM GDP for 10 min on ice. Drug solutions and membrane were mixed, and then reactions were initiated by adding GTP γ^35S and continued for 30 min at 25° C. Reaction mixtures were filtered over Whatman GF/B filters under vacuum, and washed three times with 3 mL of ice-cold buffer (HEPES 25, pH 7.4, MgCl2 10 and NaCl 100). Filters were dried and mixed with scintillant, and counted for ^35S activity using a β-counter. Agonist-induced GTP γ^35S binding was obtained by subtracting that in the absence of agonist. Binding data were analyzed using a non-linear regression method. In case of antagonist assay, the reaction mixture contained 10 nM S1P in the presence of test antagonist at concentrations ranging from 0.08 to 5000 nM. […] Activity potency: S1P1 receptor from GTP γ^35S: nM, (EC50),

T1 sequence (P21453 whole entry): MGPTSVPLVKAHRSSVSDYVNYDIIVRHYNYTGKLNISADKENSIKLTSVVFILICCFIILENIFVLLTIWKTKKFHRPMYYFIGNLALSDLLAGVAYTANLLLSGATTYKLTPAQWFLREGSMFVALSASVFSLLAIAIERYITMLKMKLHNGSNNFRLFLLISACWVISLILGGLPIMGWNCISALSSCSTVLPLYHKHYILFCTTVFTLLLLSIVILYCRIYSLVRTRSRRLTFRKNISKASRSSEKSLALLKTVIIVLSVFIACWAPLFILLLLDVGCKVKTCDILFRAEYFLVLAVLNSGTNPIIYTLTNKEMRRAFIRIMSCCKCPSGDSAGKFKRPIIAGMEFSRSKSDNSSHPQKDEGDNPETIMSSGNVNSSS

| EC50 [nM] | SMILES |
| --- | --- |
| 159 | Cc1ccc(CC(CCCCSc2ccc(CNCCC(=O)O)cc2)c2cccc(Cl)c2)cc1C (centres unmarked) [Compound 1, 3-[(4-{[5-(3-chlorophenyl)-6-(3,4-dimethylphenyl)hexyl]thio}benzyl)amino]propanoic acid] |
| 81.7 | Cc1ccc(CC(CCC[S+]([O-])c2ccc(CNCCC(=O)O)cc2)c2cccc(Cl)c2)cc1C (centres unmarked) [Compound 3, 3-[(4-{[4-(3-chlorophenyl)-5-(3,4-dimethylphenyl)pentyl]sulfinyl}benzyl)amino]propanoic acid] |

Second part, the compound before the results:

| SMILES | EC50 [nM] |
| --- | --- |
| Cc1ccc(CC(CCCC[S+]([O-])c2ccc(CNCCC(=O)O)cc2)c2cccc(Cl)c2)cc1C (centres unmarked) [Compound 2, 3-[(4-{[5-(3-chlorophenyl)-6-(3,4-dimethylphenyl)hexyl]sulfinyl}benzyl)amino]propanoic acid] | 631 |
| Cc1ccc(CC(CCCSc2ccc(CNCCCP(=O)(O)O)cc2)c2cc(F)cc(F)c2)cc1C (centres unmarked) [Compound 5, {3-[(4-{[4-(3,5-difluorophenyl)-5-(3,4-dimethylphenyl)pentyl]thio}benzyl)amino]propyl}phosphonic acid] | 2.65 |
| Cc1ccc(CC(CCCSc2ccc(CNCCCP(=O)(O)O)cc2)c2cccc(Cl)c2)cc1C (centres unmarked) [Compound 6, {3-[(4-{[4-(3-chlorophenyl)-5-(3,4-dimethylphenyl)pentyl]thio}benzyl)amino]propyl}phosphonic acid] | 0.76 |
